# Measured values taken from PMC5397059, “Design, synthesis and structure-activity relationship study of wollamide B; a new potential anti TB agent” (PLoS ONE, 2017).
# Like-named read-outs stand apart in the source and are kept apart here.
# Details: amide bond, 18-membered ring, HATU/HOBt/DIEA
structure (smiles),measurement,setting,value
CC[C@H](C)[C@@H]1NC(=O)[C@@H](CC(C)C)NC(=O)[C@H](CC(C)C)NC(=O)[C@H](Cc2cn(C(=O)OC(C)(C)C)c3ccccc23)NC(=O)[C@@H](CCCNC(=N)NS(=O)(=O)c2c(C)c(C)c3c(c2C)CC(C)(C)O3)NC(=O)[C@H](CC(=O)NC(c2ccccc2)(c2ccccc2)c2ccccc2)NC1=O [cyclo (D-Leu-Ile-Asn(Trt)-D-Arg (Pbf)-Trp(Boc)-Leu)],"ring closure, isolated yield",from H-dLeu-Ile-Asn(Trt)-dArg(Pbf)-Trp(Boc)-Leu-OH,70%
CC[C@H](C)[C@@H]1NC(=O)[C@@H](CC(C)C)NC(=O)[C@H](CC(C)C)NC(=O)[C@H](Cc2cn(C(=O)OC(C)(C)C)c3ccccc23)NC(=O)[C@@H](CCCNC(=O)OC(C)(C)C)NC(=O)[C@H](CC(=O)NC(c2ccccc2)(c2ccccc2)c2ccccc2)NC1=O [cyclo (D-Leu-Ile-Asn(Trt)-D-Orn(Boc)-Trp(Boc)-Leu)],"ring closure, isolated yield",from H-dLeu-Ile-Asn(Trt)-dOrn(Boc)-Trp(Boc)-Leu-OH,52%
CSCC[C@@H]1NC(=O)[C@@H](CC(C)C)NC(=O)[C@H](CC(C)C)NC(=O)[C@H](Cc2cn(C(=O)OC(C)(C)C)c3ccccc23)NC(=O)[C@@H](CCCNC(=O)OC(C)(C)C)NC(=O)[C@H](CC(=O)NC(c2ccccc2)(c2ccccc2)c2ccccc2)NC1=O [cyclo (D-Leu-Met-Asn(Trt)-D-Orn(Boc)-Trp(Boc)-Leu)],"ring closure, isolated yield",from H-dLeu-Met-Asn(Trt)-dOrn(Boc)-Trp(Boc)-Leu-OH,40%
CC(C)C[C@@H]1NC(=O)[C@H](Cc2cn(C(=O)OC(C)(C)C)c3ccccc23)NC(=O)[C@@H](CCCNC(=O)OC(C)(C)C)NC(=O)[C@H](CC(=O)NC(c2ccccc2)(c2ccccc2)c2ccccc2)NC(=O)[C@H](C(C)C)NC(=O)[C@@H](CC(C)C)NC1=O [cyclo (Trp (Boc)-D-Orn(Boc)-Asn(Trt)-Val-D-Leu-Leu)],"ring closure, isolated yield",from H-dLeu-Val-Asn(Trt)-dOrn(Boc)-Trp(Boc)-Leu-OH,68%
CC(C)C[C@H]1NC(=O)[C@H](CC(C)C)N(C)C(=O)[C@H](Cc2cn(C(=O)OC(C)(C)C)c3ccccc23)NC(=O)[C@@H](CCCNC(=O)OC(C)(C)C)NC(=O)[C@H](CC(=O)NC(c2ccccc2)(c2ccccc2)c2ccccc2)NC(=O)[C@H](C(C)C)N(C)C1=O [cyclo (Trp(Boc)-N-Me-Leu-D-Leu-N-Me-Val-Asn(Trt)-D-Orn(Boc))],"ring closure, isolated yield",from H-Trp(Boc)-MeLeu-dLeu-MeVal-Asn(Trt)-dOrn(Boc)-OH,73%
CC(C)C[C@@H]1NC(=O)[C@H](C)NC(=O)[C@@H](CCCNC(=O)OC(C)(C)C)NC(=O)[C@H](CC(=O)NC(c2ccccc2)(c2ccccc2)c2ccccc2)NC(=O)[C@H](C(C)C)NC(=O)[C@@H](CC(C)C)NC1=O [cyclo(Ala-D-Orn (Boc)-Asn(Trt)-Val-D-Leu-Leu)],"ring closure, isolated yield",from H-dLeu-Val-Asn(Trt)-dOrn(Boc)-Ala-Leu-OH,43%
CC(C)C[C@H]1NC(=O)[C@@H](Cc2ccc(Cl)cc2)NC(=O)[C@H](Cc2cn(C(=O)OC(C)(C)C)c3ccccc23)NC(=O)[C@@H](CCCNC(=O)OC(C)(C)C)NC(=O)[C@H](CC(=O)NC(c2ccccc2)(c2ccccc2)c2ccccc2)NC(=O)[C@H](C(C)C)NC1=O [cyclo(Asn(Trt)-D-Orn(Boc)-Trp(Boc)-D-Phe(4-Cl)-D-Leu-Val)],"ring closure, isolated yield",from H-Asn(Trt)-dOrn(Boc)-Trp(Boc)-dPhe(4-Cl)-dLeu-Val-OH,54%
CC[C@H](C)[C@@H]1NC(=O)[C@H](Cc2cn(C(=O)OC(C)(C)C)c3ccccc23)NC(=O)[C@@H](CCCNC(=O)OC(C)(C)C)NC(=O)[C@H](CC(=O)NC(c2ccccc2)(c2ccccc2)c2ccccc2)NC(=O)[C@H](C(C)C)NC(=O)[C@@H](CC(C)C)NC1=O [cyclo(Asn(Trt)-D-Orn(Boc)-Trp(Boc)-Ile-D-Leu-Val)],"ring closure, isolated yield",from H-Asn(Trt)-dOrn(Boc)-Trp(Boc)-Ile-dLeu-Val-OH,47%
CC[C@H](C)[C@@H]1NC(=O)[C@H](CC(C)C)NC(=O)[C@H](Cc2cn(C(=O)OC(C)(C)C)c3ccccc23)NC(=O)[C@@H](CCCNC(=O)OC(C)(C)C)NC(=O)[C@H](CC(=O)NC(c2ccccc2)(c2ccccc2)c2ccccc2)NC(=O)[C@H](C(C)C)NC1=O [cyclo(Asn(Trt)-D-Orn(Boc)-Trp(Boc)-Leu-Ile-Val)],"ring closure, isolated yield",from H-Asn(Trt)-dOrn(Boc)-Trp(Boc)-Leu-Ile-Val-OH,47%
CC[C@H](C)[C@@H]1NC(=O)[C@H]([C@@H](C)CC)NC(=O)[C@@H](CC(C)C)NC(=O)[C@H](CC(C)C)NC(=O)[C@H](Cc2cn(C(=O)OC(C)(C)C)c3ccccc23)NC(=O)[C@@H](CCCNC(=O)OC(C)(C)C)NC1=O [cyclo(D-Leu-Ile-Ile-D-Orn(Boc)-Trp(Boc)-Leu)],"ring closure, isolated yield",from H-dLeu-Ile-Ile-dOrn(Boc)-Trp(Boc)-Leu-OH,54%
